According to ChEMBL document CHEMBL1201862, “PubChem BioAssay data set” (2004):
The source made the active and inactive calls. Unless noted, the rule behind the calls is not given here.

Experiments:
[1] = molecular target: T1, Latent membrane protein 1 (Human herpesvirus 4 (strain B95-8), UniProt P03230); test: LMP1 TES1 pathway selectivity over dsRED control – imaging, HEK293T, dual-color eGFP/dsRED, cherry-picks, selectivity assay for LMP1 NF-kB inhibitor project, dose response (AID 588398); assay type: functional, cell-based
T1 sequence (P03230 whole entry): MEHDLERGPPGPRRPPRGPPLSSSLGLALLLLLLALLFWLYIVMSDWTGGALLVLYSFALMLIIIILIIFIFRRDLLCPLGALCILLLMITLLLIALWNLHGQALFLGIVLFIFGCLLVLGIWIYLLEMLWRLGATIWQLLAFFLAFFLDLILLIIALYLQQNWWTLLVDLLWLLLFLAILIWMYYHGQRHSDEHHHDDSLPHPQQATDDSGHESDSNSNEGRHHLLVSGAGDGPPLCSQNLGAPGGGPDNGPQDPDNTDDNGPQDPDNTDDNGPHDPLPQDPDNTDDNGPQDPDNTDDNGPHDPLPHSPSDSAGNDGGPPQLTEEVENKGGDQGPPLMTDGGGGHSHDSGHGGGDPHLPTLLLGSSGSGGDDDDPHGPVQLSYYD

[2] = non-specific 3'UTR reporter inhibition in Clone20-Shn3RL – cell-based, Renilla luciferase, cherry-picked, counter-screen for Shn3 inhibitor project, dose response (AID 624133); assay type: functional
[3] = reduction of Shn3 3'UTR-driven luciferase in osteoblasts – cell-based, Clone20 osteoblasts, firefly luciferase, cherry-picked, dose response (AID 624132); assay type: functional;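 also: firefly luciferase luminescence from reporter carrying the Shn3 3'UTR in osteoblasts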
HEK293 = test: EBV LMP1 TES2 canonical NF-kB signalling blockers – cell-based, HEK293, luciferase, cherry-pick, dose response (AID 588343); assay type: functional; conditions: Homo sapiens
[4] = Fluorescence-based cell-based high throughput dose response assay for inhibitors of the interaction of nucleotide-binding oligomerization domain containing 2 (NOD2) and the receptor-interacting serine-threonine kinase 2 (RIPK2).; assay type: functional; conditions: Homo sapiens
[5] = loss of viability in HepG2 cells – cell-based, CellTiter-Glo, cherry-picked, cytotoxicity control for Shn3 inhibitor project, dose response (AID 624134); assay type: functional
[6] = molecular target: T2, Small ubiquitin-related modifier 1 (Homo sapiens, UniProt P63165); test: SUMO1 protein interaction blockers, potency – biochemical, fluorescence polarization, uHTS hits, dose response (AID 624382); assay type: functional; conditions: read-out: IC50_Mean
[7] = viability loss in human Jurkat cells – cell-based, luminescence, cytotoxicity control for P. falciparum gametocyte viability project, dose response (AID 1117277); assay type: functional;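 also: potency reflects loss of cellular ATP meaning fewer viable cells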
[8] = viability inhibitors of stage V gametocytes – luminescence, dose response (AID 1117278); assay type: functional, cell-based;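 also: gametocytes exposed to compound for 24 hours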
[9] = molecular target: T2, Small ubiquitin-related modifier 1; test: SUMO1 protein-protein binding blockers, potency – biochemical, FRET, dose response (AID 624383); assay type: functional; conditions: read-out: IC50_Mean
[10] = molecular target: T3, Botulinum neurotoxin type A (Clostridium botulinum (strain Hall / ATCC 3502 / NCTC 13319 / Type A), UniProt P0DPI1); test: High-throughput multiplex microsphere dose response for inhibitors of toxin protease, specifically Botulinum neurotoxin light chain A protease, compounds from Powder Set 01.; assay type: functional, Clostridium botulinum A str. ATCC 3502; conditions: read-out: EC50_MICROM
[11] = molecular target: Botulinum neurotoxin type F (Clostridium botulinum, UniProt P30996); test: High-throughput multiplex microsphere dose response for inhibitors of toxin protease, specifically Botulinum neurotoxin light chain F protease, compounds from Powder Set 01.; assay type: functional, Clostridium botulinum Bf; conditions: read-out: EC50_MICROM
Lethal factor = Lethal factor (Bacillus anthracis, UniProt P15917); test: High-throughput multiplex microsphere dose response for inhibitors of toxin protease, specifically Lethal Factor protease, compounds from Powder Set 01.; assay type: functional, Bacillus anthracis str. A2012; conditions: read-out: EC50_MICROM
[12] = molecular target: T3, Botulinum neurotoxin type A; test: Confirmatory FRET assay using full length substrates for Botulinum neurotoxin light chain A protease, with Powder Set01.; assay type: functional
[13] = molecular target: T4, Probable nicotinate-nucleotide adenylyltransferase (Staphylococcus aureus (strain N315), UniProt P65502); assay type: functional, Staphylococcus aureus subsp. aureus N315;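 as to IC50 Mean: confirmatory dose-response retesting of NadD inhibitor hits first found in an ultra-high-throughput screen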
[14] = molecular target: T4, Probable nicotinate-nucleotide adenylyltransferase; assay type: functional, Staphylococcus aureus subsp. aureus N315; conditions: read-out: IC50_Mean
[15] = molecular target: T5, Sentrin-specific protease 1 (Homo sapiens, UniProt Q9P0U3); test: SENP1 catalytic domain blockers, concentration series – biochemical, kinetic FRET, dose response (AID 651697); assay type: functional; conditions: read-out: IC50_Mean
T5 sequence (Q9P0U3 whole entry): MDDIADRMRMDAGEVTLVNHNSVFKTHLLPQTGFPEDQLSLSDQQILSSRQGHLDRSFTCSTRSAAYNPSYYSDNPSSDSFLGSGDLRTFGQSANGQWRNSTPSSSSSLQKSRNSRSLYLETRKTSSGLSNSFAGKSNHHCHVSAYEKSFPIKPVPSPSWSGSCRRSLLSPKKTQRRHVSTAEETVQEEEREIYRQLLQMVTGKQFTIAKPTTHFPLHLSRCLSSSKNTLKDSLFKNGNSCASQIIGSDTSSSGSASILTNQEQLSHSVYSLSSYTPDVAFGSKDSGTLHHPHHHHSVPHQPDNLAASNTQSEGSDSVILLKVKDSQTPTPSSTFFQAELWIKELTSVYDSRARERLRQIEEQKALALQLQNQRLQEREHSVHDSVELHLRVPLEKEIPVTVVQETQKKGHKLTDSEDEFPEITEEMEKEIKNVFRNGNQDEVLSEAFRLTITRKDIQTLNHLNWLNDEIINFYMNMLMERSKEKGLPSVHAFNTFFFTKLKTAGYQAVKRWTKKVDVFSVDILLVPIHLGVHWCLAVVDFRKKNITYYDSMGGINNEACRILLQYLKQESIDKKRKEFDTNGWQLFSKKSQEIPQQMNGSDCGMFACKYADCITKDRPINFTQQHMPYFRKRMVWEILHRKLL

[16] = molecular target: T5, Sentrin-specific protease 1; test: Dose response confirmation of small molecule inhibitors of the catalytic domain of the SUMO protease, SENP1 in a FRET assay.; assay type: functional; conditions: read-out: IC50_Mean
Cryptococcus neoformans [17] = test: Cryptococcus growth inhibition by alamar blue – cell lysis, cherry-picks, replicate tests, mechanism study for C. neoformans antifungal project, dose response (AID 686999); assay type: functional, organism-based
Cryptococcus neoformans [18] = test: PubChem AID 686997; assay type: functional, organism-based
[19] = TNFa-induced NF-kB reporter signal decrease – HEK293 LMP1 reporter cells, dry powder, set 2, selectivity assay for EBV LMP1 NF-kB inhibitor project, dose response (AID 624369); assay type: functional
[20] = inhibitors of EBV LMP1 NF-kappaB signaling – cell-based, luciferase reporter, luminescence, dry powder, set 2, dose response (AID 624376); assay type: functional

For `O=C1C(=C(c2ccccc2)N2CCOCC2)Cc2ccccc21`, which AC50 [1] is on record?
The AC50 was 2.98 µM (active).

What about the AC50 [2] of the same compound?
Its AC50 is 5.97 µM (active).

What about the AC50 [3] of the same compound?
The AC50 was 0.999 µM (active).

And the AC50 (HEK293)?
Its AC50 is 4.87 µM (active).

And the IC50 [4]?
Its IC50 is 1.34 µM (active).

What about the AC50 [5] of the same compound?
The AC50 was 38.4 µM (active).

What does the source list for `Cc1ccc(N2C(=S)SC3CS(=O)(=O)CC32)cc1` (configuration not stated)?
IC50 [6]: > 66.6 µM (inactive); IC50 [7]: > 83.2 µM (inactive); IC50 [8]: > 109 µM (inactive); IC50 [9]: 100 µM (inactive)

Which results are given for `O=C(Nc1ccc2nc(-c3cccs3)c(-c3cccs3)nc2c1)N1CCCCC1`?
EC50 [10]: 6.1 µM (active); EC50 [11]: 4.6 µM (active); EC50 (Lethal factor): 6.7 µM (active); EC50 [12]: 6.9 µM (active)

For `CCOC(=O)C1=C(C)N=c2sc(=Cc3cc(Cl)c(OCC(=O)O)c(Cl)c3)c(=O)n2C1c1cccc(OC)c1` (configuration not stated), which IC50 [13] is on record?
The IC50 was 5.18 µM (active).

What about the IC50 [14] of the same compound?
Its IC50 is 19.2 µM (active).

And the IC50 [15]?
The IC50 was 19.6 µM (active).

And the IC50 [16]?
Its IC50 is 12.8 µM (active).

Which AC50 (Cryptococcus neoformans [17]) does the source give for `COC(=O)C1=C(C)N(Cc2ccc(Cl)cc2)C(=S)NC1c1ccc(Br)cc1` (configuration not stated) here?
Its AC50 is 29.1 µM (active).

And the AC50 (Cryptococcus neoformans [18])?
The AC50 was 27.3 µM (active).

With `O=C(C[C@@H]1C[C@H]2c3cc(NS(=O)(=O)c4ccc(F)cc4)ccc3O[C@H]2[C@H](CO)O1)NCc1ccc(Oc2ccccc2)cc1` as the compound, how does the AbsAC35 [19] read?
The AbsAC35 was 42.88 µM.

What about the AbsAC35 [20] of the same compound?
Its AbsAC35 is 65.62 µM.
